According to patent publication US11980607B2, “Methods of treating malignant lymphoproliferative disorders” (Actuate Therapeutics Inc., priority 2018, dated 2024):

Tests used:
[1] = test system: NF-κB, DNA damage and apoptotic pathways in lymphoma cell lines; assay: Luminex analysis of NF-κB, DNA damage and apoptotic pathway signaling; format: cell-based; details: 1 μM, 48 hours
Text: Signaling changes in NF-κB [MILLIPLEXMAP NF-κB Signaling Magnetic Bead Kit 6-plex Kit, EMD Millipore, analytes: c-MYC, FADD (Ser194), IκBα (Ser32), IKKα/β (Ser177/Ser181), NF-κB (Ser536), TNFR1], DNA damage [MILLIPLEX MAP DNA Damage/Genotoxicity Magnetic Bead Panel, EMD Millipore, analytes: ATR (total), Chk1 (Ser345), Chk2 (Thr68), H2A.X (Ser139), MDM2 (total), p21 (Total), p53 (Ser15)], and apoptotic pathways [Bio-plex pro RBM apoptosis panel 2 and 3, Bio-Rad, analytes: Bad, Bax/Bcl-2 dimer, Bcl-xL, Bim, Mcl-1, active caspase 3, Bcl-xL/Bak dimer, Mcl-1/Bak dimer, survivin] associated with 1 μM 9-ING-41 treatment for 48 hours as compared to no-treatment controls were determined using Luminex multiplex technology with a FLEXMAP 3D instrument, as per manufacturer instructions. Cells were lysed in MILLIPLEX MAP Lysis buffer supplemented with protease inhibitor cocktail (Sigma) and phosphatase inhibitor cocktails 2 and 3 (Sigma) and, after BCA protein determination, 15 μg of protein was added to each well. All samples were run in duplicate and changes in MFI or absolute quantity between 9-ING-41-treated cells and nontreated control were analyzed, and an unpaired t-test was performed to determine statistical significance.

[2] = test system: GSK3β localization in Jeko cells; assay: Immunofluorescence staining for GSK3β localization; format: cell-based, human; details: 9-ING-41 treated Jeko cells
Experimental: (B) A close-up (magnification) image of that shown in (A). […] (L) A close-up image of a mitotic cell shown in (K). (M) An overlay image showing the microtubule structure by α-tubulin (red) staining and DNA (in blue). (N) A close-up image of that shown in (M). […] (R) A close-up image of a representative mitotic cell shown in (Q). All other immunostainings of GSK3β and α-Tubulin on cytospin preparations of lymphoma cells were fixed with 4% paraformaldehyde in PBS for 15 min at room temperature followed by permeabilization and the same staining steps as above. The cells were analyzed and imaged on a conventional Zeiss microscope or a Zeiss LSR 780 confocal microscope. To determine the intracellular localization of GSK3β in mitotic cells, GSK3β localization in normal mitotic Jeko cells was analyzed. […] The localization of GSK3β in 9-ING-41 treated Jeko cells (FIG. 8Q-R) was determined.

[3] = test system: Diffuse large B-cell lymphoma; assay: Treatment of Diffuse Large B-cell Lymphoma in a human; format: in vivo; details: 1 mg/kg per day, six 21 day cycles
Experimental: A human suffering from Diffuse large B-cell lymphoma is administered 1 mg/kg per day of 9-ING-41 for six 21 day cycles. After treatment, the human's DLBCL is in remission.

[4] = test system: SUDHL-4, KPUM-UH1, Karpas 22, or TMD8 lymphoma cells; assay: cells; format: cell-based
Experimental: FIGS. 1A-1E show the viability and proliferation of lymphoma cells with 9-ING-41 treatment. 10,000 cells (SUDHL-4 (FIG. 1B), KPUM-UH1 (FIG. 1C), Karpas 422 (FIG. 1D), TMD8 (FIG. 1E)) per 96-well plate well were left untreated or treated with 1 μM 9-ING-41 in triplicate, and the number of cells on days 1, 3, 5 and 7 were calculated using the MTS assay. Briefly, 20 μL of MTS reagent was added to cells and incubated for 2 hours and, the absorbance at 490 nm (A490) was read using a Biotek plate reader. Absorbance at OD=490 nm increases proportionally to cell density. Error bars represent std. deviation between replicates.
Daudi (Burkitt) and SUDHL-4 (germinal center (GC) diffuse large B-cell lymphoma (DLBCL)) cell lines were purchased from […]. (ATCC). KPUM-UH1 (double hit DLBCL) cells were obtained from Junya Kuroda, Kyoto Prefectural University of Medicine, Kyoto, Japan. All cell lines were cultured aseptically and maintained in a water-jacketed incubator (Thermo-Forma) at 37° C. with 5% CO2 and fed with RPMI-1640 (Corning) containing […] glutamine, 10% FBS (Sigma), and antibiotic and antimycotic reagent (Gemini Bioproducts; final concentrations—100 units/mL penicillin G, 100 μg/mL streptomycin sulfate, and 250 ng/mL amphotericin B). Karpas 422 (GC-DLBCL) cells was purchased from Sigma. […] All cell numbers for assays were quantified using a TC20 automated cell counter (BioRad). […]
Cell viability at day 3 and proliferation over the course of 7 days were measured after treating cells with varying concentrations of 9-ING-41 using the Promega CellTiter 96® AQueous One Solution Cell Proliferation Assay reagent (MTS) in accordance with the manufacturer's instructions. […] The absorbance at 490 nm (A490) was determined using a Powerwave XS plate reader (Biotek).
All lymphoma cell lines used in this study express active GSK-3β. SUDHL-4, KPUM-UH1, […], or TMD8 lymphoma cells were plated, and cell numbers on days 1, 3, 5 and 7 were measured using the MTS assay. […]

[5] = test system: T-cell lymphoma (non-Hodgkin's); assay: Treatment of T-Cell Lymphoma in a human; format: in vivo; details: 2 mg/kg per day, six 21 day cycles
Experimental: A human suffering from T-cell lymphoma (non-Hodgkin's) is administered 2 mg/kg per day of 9-ING-41 for six 21 day cycles. After treatment, the human's TCL is in remission.

Q: What does the source list for `Cn1cc(C2=C(c3coc4ccc(F)cc34)C(=O)NC2=O)c2cc3c(cc21)OCO3` [9-ING-41, 3-(5-Fluorobenzofuran-3-yl)-4-(5-methyl-5H-[1,3]dioxolo[4,5-f]indol-7-yl)pyrrole-2,5-dione]?
A: Total c-MYC levels ([1]; Karpas 422 and TMD8 cell lines): significant reduction; DNA damage signaling, p-H2A.X (Ser139) ([1]; SUDHL-4 and Karpas 422 cell lines, p<0.05): increased; phospho-p53 (Ser15) ([1]; SUDHL-4 and TMD8 cells): significant increase; Reduction in Bcl-x1/Bak dimer expression ([1]; all cell lines except TMD8, p<0.05): ~1.5 fold; Reduction in Mcl-1/Bak dimers ([1]; all lymphoma cell lines except KPUM-UH1, p<0.05): ~2 fold; Active caspase 3 ([1]; all lymphoma cell lines except TMD8): increase in active caspase 3; Reduction in survivin ([1]; all lymphoma cell lines except TMD8, p<0.05): ~2 fold; Effect on localization of GSK3β [2]: did not alter the localization of GSK3β; Outcome after treatment [3]: in remission; Proliferation on day 7, relative to control ([4]; 1 μM 9-ING-41, day 7, all lymphoma cell lines, p<0.05): less than 30%; cytotoxicity at 1 µM ([4]; 72 h, read-out: Reduction of cell viability on day 3): 40 to 70%; Concentration at which a reduction in viability was seen ([4]; tested 0.1, 0.5, 1, 5 and 10 μM): ≥ 0.5 µM; Outcome after treatment [5]: in remission
